Measurements taken from patent US10815210B2, “Benzocyclobutane derivatives useful as dual SGLT1 / SGLT2 modulators” (Janssen Pharmaceutica NV, priority 2016, dated 2020).

How the values were obtained:
human SGLT1 = target: T1, human SGLT1 (Homo sapiens, UniProt P13866); test: SGLT1 assay: Na-dependent 14C-AMG uptake in CHO-K1 cells stably expressing human SGLT1; assay type: cell-based; conditions: for IC50: 500 μM AMG, 2 hours at 37° C.
T1 construct: expressed in transfected cells; host or cells: CHO-K1
T1 sequence (P13866 1-664): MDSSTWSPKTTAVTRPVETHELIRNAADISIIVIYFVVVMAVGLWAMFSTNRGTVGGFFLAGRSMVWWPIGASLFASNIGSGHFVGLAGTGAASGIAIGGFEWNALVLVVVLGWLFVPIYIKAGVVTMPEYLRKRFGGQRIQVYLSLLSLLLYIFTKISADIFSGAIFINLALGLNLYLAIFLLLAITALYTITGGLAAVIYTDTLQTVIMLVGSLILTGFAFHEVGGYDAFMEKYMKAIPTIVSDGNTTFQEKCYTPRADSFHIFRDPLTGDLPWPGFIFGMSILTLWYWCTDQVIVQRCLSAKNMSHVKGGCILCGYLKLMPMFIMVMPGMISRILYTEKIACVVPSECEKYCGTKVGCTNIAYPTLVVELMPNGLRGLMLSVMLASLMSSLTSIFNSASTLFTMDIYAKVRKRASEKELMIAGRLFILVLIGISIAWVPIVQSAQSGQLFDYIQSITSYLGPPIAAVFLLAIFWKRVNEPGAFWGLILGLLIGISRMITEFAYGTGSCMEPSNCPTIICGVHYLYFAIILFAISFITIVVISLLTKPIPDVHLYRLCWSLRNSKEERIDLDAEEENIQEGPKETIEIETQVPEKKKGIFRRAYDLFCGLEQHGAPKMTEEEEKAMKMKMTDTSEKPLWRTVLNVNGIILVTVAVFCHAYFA
Summary of the method: (§1)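 CHO-K1 cells stably expressing human SGLT1 or SGLT2, pretreated 24 h with 10 mM Na-butyrate, were exposed 10 min to compound (0.001-10 μM) in Na-containing HEPES/Tris buffer pH 7.4. Uptake of ^14C-AMG (500 μM final) ran 2 h at 37° C, then Na-dependent uptake was counted by scintillation.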

human SGLT2 = target: T2, human SGLT2 (Homo sapiens, UniProt P31639); test: SGLT2 assay: Na-dependent 14C-AMG uptake in CHO-K1 cells stably expressing human SGLT2; assay type: cell-based; conditions: for IC50: 500 μM AMG, 2 hours at 37° C.
T2 construct: expressed in transfected cells; host or cells: CHO-K1
T2 sequence (P31639 1-672): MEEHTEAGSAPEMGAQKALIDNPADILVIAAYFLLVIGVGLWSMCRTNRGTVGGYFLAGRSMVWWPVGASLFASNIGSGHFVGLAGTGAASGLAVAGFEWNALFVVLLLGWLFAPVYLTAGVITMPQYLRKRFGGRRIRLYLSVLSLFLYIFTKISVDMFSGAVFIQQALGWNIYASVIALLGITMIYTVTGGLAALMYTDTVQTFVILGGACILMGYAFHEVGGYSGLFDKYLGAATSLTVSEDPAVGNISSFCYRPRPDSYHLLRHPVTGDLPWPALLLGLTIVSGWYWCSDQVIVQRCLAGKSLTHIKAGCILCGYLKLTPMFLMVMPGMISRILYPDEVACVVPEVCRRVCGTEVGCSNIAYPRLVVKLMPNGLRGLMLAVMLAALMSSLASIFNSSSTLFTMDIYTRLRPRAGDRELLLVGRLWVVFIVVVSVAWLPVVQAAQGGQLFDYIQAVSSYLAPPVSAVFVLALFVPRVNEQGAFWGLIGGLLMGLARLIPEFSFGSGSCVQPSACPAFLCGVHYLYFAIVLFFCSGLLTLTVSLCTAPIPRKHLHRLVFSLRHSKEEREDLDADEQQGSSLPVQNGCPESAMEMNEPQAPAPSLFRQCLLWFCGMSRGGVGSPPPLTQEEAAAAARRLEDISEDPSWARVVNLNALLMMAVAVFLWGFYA
Summary of the method: as §1

Compound | IC50 (human SGLT1) | IC50 (human SGLT2) | inhibition at 0.3 µM (human SGLT1) | inhibition at 0.03 µM (human SGLT2)
COc1cc(O)c([C@@H]2O[C@H](CO)[C@@H](F)[C@H](O)[C@H]2O)cc1Cc1ccc2c(c1)CC2 [Compound 135] | 3 nM | 3 nM |  | 
CCOc1cc(OC)c(Cc2ccc3c(c2)CC3)cc1[C@@H]1O[C@H](CO)[C@@H](O)[C@H](O)[C@H]1O [Compound 114] | 37 nM | 2 nM |  | 
CCOc1cc(Cl)c(Cc2ccc3c(c2)CC3)cc1[C@@H]1O[C@H](CO)[C@@H](F)[C@H](O)[C@H]1O [Compound 132] | 18 nM | 1 nM |  | 
Cc1ccc([C@@H]2O[C@H](CO)[C@@H](F)[C@H](O)[C@H]2O)cc1C(F)(F)c1ccc2c(c1)CC2 [Compound 142] | 133 nM | 23 nM |  | 
[2H]C([2H])(c1ccc2c(c1)CC2)c1cc([C@@H]2O[C@H](CO)[C@@H](O)[C@H](O)[C@H]2O)ccc1OC (single isomer, unassigned) [Compound 57] | 44 nM | 6 nM |  | 
N#Cc1cc(O)c([C@@H]2O[C@H](CO)[C@@H](O)[C@H](O)[C@H]2O)cc1Cc1ccc2c(c1)CC2 [Compound 17, 2-((1,2-dihydrocyclobutabenzen-4-yl)methyl)-5-hydroxy-4-((2S,3R,4R,5S,6R)-3,4,5-trihydroxy-6-(hydroxymethyl)-tetrahydro-2H-pyran-2-yl)benzonitrile] | 192 nM | 1 nM |  | 
COc1cc(C2CC2)c(Cc2ccc3c(c2)CC3)cc1[C@@H]1O[C@H](CO)[C@@H](O)[C@H](O)[C@H]1O [Compound 15, (2S,3R,4R,5S,6R)-2-(5-(bicyclo[4.2.0]octa-1(6),2,4-trien-3-ylmethyl)-4-cyclopropyl-2-methoxyphenyl)-6-(hydroxymethyl)oxane-3,4,5-triol] |  |  | 67% | 31%
CCOc1cc(OC)c(Cc2ccc3c(c2)CC3)cc1[C@@H]1O[C@H](CO)[C@@H](F)[C@H](O)[C@H]1O [Compound 137] | 20 nM | 1 nM |  | 
COc1ccc(Cc2ccc3c(c2)CC3)cc1[C@@H]1O[C@H](CO)[C@@H](O)[C@H](O)[C@H]1O [Compound 26, (2S,3R,4R,5S,6R)-2-(5-(bicyclo[4.2.0]octa-1(6),2,4-trien-3-ylmethyl)-2-methoxyphenyl)-6-(hydroxymethyl)oxane-3,4,5-triol] |  |  | 5% | 58%
COc1cc(OC)c([C@@H]2O[C@H](CO)[C@@H](O)[C@H](O)[C@H]2O)cc1Cc1ccc2c(c1)CC2 [Compound 11, (2S,3R,4R,5S,6R)-2-(5-((1,2-dihydrocyclobutabenzen-4-yl)methyl)-2,4-dimethoxyphenyl)-6-(hydroxymethyl)-tetrahydro-2H-pyran-3,4,5-triol] | 58 nM | 1 nM |  | 
COc1cc(C#N)c(Cc2ccc3c(c2)CC3)cc1[C@@H]1O[C@H](CO)[C@@H](O)[C@H](O)[C@H]1O [Compound 18, 2-((1,2-dihydrocyclobutabenzen-4-yl)methyl)-5-methoxy-4-((2S,3R,4R,5S,6R)-3,4,8-trihydroxy-6-(hydroxymethyl)-tetrahydro-2H-pyran-2-yl)benzonitrile] |  |  | 25% | 74%
Cc1cc(Cc2ccc3c(c2)CC3)cc([C@@H]2O[C@H](CO)[C@@H](O)[C@H](O)[C@H]2O)c1O [Compound 27, (2S,3R,4R,5S,6R)-2-(5-((1,2-dihydrocyclobutabenzen-4-yl)methyl)-2-hydroxy-3-methylphenyl)-6-(hydroxymethyl)-tetrahydro-2H-pyran-3,4,5-triol] | 29 nM | 1 nM |  | 
CCc1cc(OC2CC2)c([C@@H]2O[C@H](CO)[C@@H](O)[C@H](O)[C@H]2O)cc1Cc1ccc2c(c1)CC2 [Compound 116] | 13 nM | 2 nM |  | 
